{"source": "patent US5386832A", "about": "“Liver function breath test using aromatic amino acids” (New England Deaconess Hospital, priority 1993, dated 1995)", "test_system": "liver function", "experiment": "breath test: oral 13C-phenylalanine, labeled CO2 in expired breath", "format": "in vivo, patient", "settings": "100 mg oral; for maximum percent dose oxidized within 10 minutes / cumulative percent dose oxidized: group mean; for cumulative percent dose oxidized: 1 hr; for Max. % Dose Oxidized/10 min. / Cumulative 1 hr % Dose Oxidized: overnight fast; for Max. % Dose Oxidized/10 min.: breath every ten minutes for one hour; for Cumulative 1 hr % Dose Oxidized: over one hour", "source_text": "All of the participants in the test are first required to fast overnight. This minimizes metabolic effects of meal absorption and the contribution of endogenous label appearing in the breath from natural levels of the endogenous isotope in the diet. While the preferred isotope for use in the test is ^13 C, other carbon isotopes (or even nitrogen isotopes) could be used. At least two baseline breath samples are collected and the mean isotope value in these samples is used as a background. This background is subtracted from the ^13 C levels determined following isotopic administration in order to obtain the change in ^13 C level.\nAll breath samples, both those collected prior to administration of the isotope and those after administration, are collected with a commercially available breath sampler such as a Quintron AlveoSampler. These samplers have a mouthpiece and a collection bag with a one-way valve there between. The breath samples are trapped in a syringe and the contents of the syringe are injected into a […] evacuation tube such as a Exetainer tube.\nIn the preferred mode of the invention, ^13 C-phenylalanine is used as the isotope tracer. One hundred mg doses of L-1-^13 C-phenylalanine are dissolved in 50 ml of water and the dose is administered orally. The dose bottle is washed with another 50ml of water and the wash is administered to the patient to make sure that all the phenylalanine was released from the dose bottle. Although intravenous or intramuscular administration of the isotope tracer could be used, the oral dose acts sufficiently and is much easier to administer.\nBreath samples are collected every ten minutes for one hour after dosage. The amount of labeled isotope is measured using an isotope ratio mass spectrometer such a Europa Scientific Gas Isotope Ratio Mass Spectrometer (Europa Scientific, Inc., Cincinnati, Ohio). The ratio of ^13 C-CO2 to ^12 C-CO2 (mass ratio 45:44) is measured and compared to a reference CO2 tank. The reference CO2 is calibrated to the international PDB standard and the amount of labeled ^13 C is determined by the following formula\nThe mean Atom % ^13 C values are subtracted to determine the Atom % Excess ^13 C. The % Dose Oxid (or percent dose oxidized) is calculated from formulas 2 and 3.\nTotal ^13 C Excreted[…]%^13 C(from AUC)×5×(time in\nmin.)×Body Surface Area (m^2) (2)\n% Dose Oxid=Total ^13 C Excreted/Dose (mmoles)×100% (3)\nTwo groups of subjects were used to test the efficacy of the present system. The first group contained 16 normal subjects while the second had 12 patients with various levels of liver disease.", "key": {"[1]": {"settings": "12 patients with liver disease, P<0.05 vs control"}, "[2]": {"settings": "control group, 16 normal subjects, P<0.05 vs patients"}, "[3]": {"settings": "individual control (normal) subjects 1-16"}, "[4]": {"settings": "individual patients 17-28 with liver disease"}}, "note": "Values joined by “and” are separate entries in the source; they are usually repeats but may differ in a detail not shown here. Identical values can stand only once.", "data": [{"molecule": "N[C@@H](Cc1ccccc1)[13C](=O)O", "note": "[L-1-^13 C-phenylalanine]", "values": [{"measurement": "maximum percent dose oxidized within 10 minutes", "setting": "[1]", "value": "0.50±0.27", "unit": "%"}, {"measurement": "cumulative percent dose oxidized", "setting": "[1]", "value": "1.82±0.93", "unit": "%"}, {"measurement": "maximum percent dose oxidized within 10 minutes", "setting": "[2]", "value": "2.15±0.84", "unit": "%"}, {"measurement": "cumulative percent dose oxidized", "setting": "[2]", "value": "7.62±2.87", "unit": "%"}, {"measurement": "Max. % Dose Oxidized/10 min.", "setting": "[3]", "value": "2.46% and 4.53% and 1.48% and 1.57% and 2.81% and 2.82% and 1.20% and 2.31% and 1.05% and 1.65% and 2.19% and 2.37% and 2.60% and 2.11% and 1.75%"}, {"measurement": "Cumulative 1 hr % Dose Oxidized", "setting": "[3]", "value": "8.56% and 15.53% and 3.96% and 6.52% and 7.14% and 9.86% and 11.12% and 3.78% and 7.34% and 4.44% and 6.21% and 7.78% and 7.71% and 7.50% and 7.57% and 6.83%"}, {"measurement": "Max. % Dose Oxidized/10 min.", "setting": "[4]", "value": "0.43% and 0.62% and 0.36% and 0.93% and 0.49% and 0.17% and 0.38% and 0.58% and 1.09% and 0.46%"}, {"measurement": "Cumulative 1 hr % Dose Oxidized", "setting": "[4]", "value": "2.16% and 2.81% and 1.25% and 2.00% and 1.59% and 0.51% and 1.29% and 1.46% and 0.61% and 2.22% and 3.88% and 2.02%"}]}]}
